Test results as given in patent US20220033406A1, “C[…] AS ANTI-VIRALS” (priority 2018, published 2022).
pIC50: −log10 of the molar value.

Key:
[1] = biological target: T1, Recombinant full-length HIV-1 Reverse Transcriptase (HIVrt) (Human immunodeficiency virus type 1 group M subtype B, UniProt P04585); test: Inhibition of HIV reverse transcriptase (RdDp assay); assay type: biochemical; conditions: 1 nM HIVrt, 30° C., 40 min, 3H-TTP incorporation; Table 3 triphosphates
T1 construct: Recombinant full-length HIV-1 Reverse Transcriptase (HIVrt); purchased Abcam ab63979
Protocol: Recombinant full-length HIV-1 Reverse Transcriptase (HIVrt) was purchased from Abcam, catalog #ab63979. The last 385 nucleotide region of the HCV anti-genome complementary to the 5′ untranslated region (c5′UTR) was synthesized using T7 RNA polymerase Megascript kit from Ambion (Cat #AM1333). A DNA oligo served as an internal initiation primer and was purchased from IDT. Unless otherwise specified, reaction samples consisted of 20 nM c5′UTR RNA, 100 nM DNA primer, and 1 nM HIVrt, mixed together in a buffer containing 50 mM Tris pH 7.5, 100 mM KCl, 4 mM dithiothreitol (DTT), and 12.5 mM MgCl2. Reactions were initiated at 30° C. by adding 0.1 μM adenosine triphosphate (dATP), 0.1 μM cytosine triphosphate (dCTP), 1 μM guanosine triphosphate (dGTP), and 0.32 μM ^3H-thymidine triphosphate (^3H-TTP), in a final volume of 50 μL. After 40-mins incubation, the reaction was terminated by adding 60 μL of chilled 20% (w/v) trichloroacetic acid with 500 μM ATP to precipitate nucleic acids. After incubation at 4° C. for 1 h, the sample underwent filtration on a multiscreen BV […] 96-well plate (Millipore). 40 μL Microscint-20 (Perkin Elmer) was added to the well and the counts in the sample were determined by a Trilux Microbeta microplate scintillation reader (Wallac).
All data were analyzed with GraphPad Prism. The compound concentration at which the enzyme-catalyzed rate was reduced by 50% (IC50) was calculated by fitting the data to the equation Y=% Min+(% Max−% Min)/(1+X/IC50), where Y corresponds to the percent relative enzyme activity, % Min is the residual relative activity at saturating compound concentration, % Max is the relative maximum enzyme activity, and X corresponds to the compound concentration. The Ki was calculated using the Cheng-Prusoff equation assuming competitive inhibition relative to natural dNTP incorporation: K=IC50/(1+[dNTP]/Km), where [dNTP] is the concentration of natural dNTP and Km is the apparent Km for dNTP. The standard HIVrt RNA-dependent DNA polymerization (RdDp) assay was used to determine the IC50 values.

[2] = biological target: T2, Recombinant full-length HBV polymerase (HBVpol) (Hepatitis B virus genotype D subtype ayw, UniProt P03156); test: Inhibition of HBV polymerase (RdDp assay); assay type: biochemical; conditions: HBVpol expressed in SF9 cells, 30° C., 120 min, 3H-TTP incorporation; Table 3 triphosphates; read-out: HBVrt IC50
T2 construct: Recombinant full-length HBV polymerase(HBVpol) was expressed in SF9 cells; made in house; host or cells: SF9 insect cells
T2 sequence (P03156 whole entry): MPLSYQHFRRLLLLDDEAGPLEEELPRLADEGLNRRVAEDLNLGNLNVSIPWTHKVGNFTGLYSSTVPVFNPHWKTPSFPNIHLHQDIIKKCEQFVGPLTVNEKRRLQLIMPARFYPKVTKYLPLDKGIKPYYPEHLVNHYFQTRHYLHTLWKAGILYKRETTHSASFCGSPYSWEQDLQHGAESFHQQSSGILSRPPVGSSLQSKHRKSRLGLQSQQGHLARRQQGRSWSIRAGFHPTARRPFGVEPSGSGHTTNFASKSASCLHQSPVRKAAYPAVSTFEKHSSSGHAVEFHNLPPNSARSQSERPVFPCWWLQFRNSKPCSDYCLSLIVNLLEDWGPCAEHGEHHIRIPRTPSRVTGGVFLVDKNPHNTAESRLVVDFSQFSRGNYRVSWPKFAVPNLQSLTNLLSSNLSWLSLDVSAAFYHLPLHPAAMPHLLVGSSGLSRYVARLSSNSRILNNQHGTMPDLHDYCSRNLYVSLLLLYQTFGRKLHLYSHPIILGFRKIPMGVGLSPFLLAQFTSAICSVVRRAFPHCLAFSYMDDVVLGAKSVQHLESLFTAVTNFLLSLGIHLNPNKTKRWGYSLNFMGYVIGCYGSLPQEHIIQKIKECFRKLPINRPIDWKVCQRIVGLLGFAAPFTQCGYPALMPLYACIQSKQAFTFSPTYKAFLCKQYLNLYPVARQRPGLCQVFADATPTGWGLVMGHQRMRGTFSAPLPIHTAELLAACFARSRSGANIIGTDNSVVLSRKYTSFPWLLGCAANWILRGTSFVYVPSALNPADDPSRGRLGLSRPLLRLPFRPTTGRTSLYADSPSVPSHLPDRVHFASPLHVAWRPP

Structure (SMILES) | pIC50 [1] | pIC50 [2]
C=C1[C@@H](n2ccc(N)nc2=O)C[C@H](O)[C@@]1(CF)COP(=O)(O)OP(=O)(O)OP(=O)(O)O [Example 29, ((1S,3S,5S)-3-(4-Amino-2-oxopyrimidin-1(2H)-yl)-1-(fluoromethyl)-5-hydroxy-2-methylenecyclopentyl)methyl Tetrahydrogen Triphosphate] | 6.49 | 6.42
C=C1[C@@H](n2cnc3c(=O)[nH]c(N)nc32)C[C@H](O)[C@@]1(F)COP(=O)(O)OP(=O)(O)OP(=O)(O)O [Example 25, ((1S,3S,5S)-3-(2-Amino-6-oxo-1,6-dihydro-9H-purin-9-yl)-1-fluoro-5-hydroxy-2-methylenecyclopentyl)methyl Tetrahydrogen Triphosphate] | 6.60 | 8.00
C=C1[C@@H](n2ccc3c(N)ncnc32)C[C@H](O)[C@@]1(F)COP(=O)(O)OP(=O)(O)OP(=O)(O)O [Example 27, ((1S,3S,5S)-3-(4-Amino-7H-pyrrolo[2,3-d]pyrimidin-7-yl)-1-fluoro-5-hydroxy-2-methylenecyclopentyl)methyl Tetrahydrogen Triphosphate] | 7.18 | 8.14
C=C1[C@@H](n2cc(C)c(=O)[nH]c2=O)C[C@H](O)[C@@]1(C#N)COP(=O)(O)OP(=O)(O)OP(=O)(O)O [Example 32, ((1S,3S,5S)-1-Cyano-5-hydroxy-3-(5-methyl-2,4-dioxo-3,4-dihydropyrimidin-1(2H)-yl)-2-methylenecyclopentyl)methyl Tetrahydrogen Triphosphate] | 6.32 | < 6.00
C=C1[C@@H](n2cnc3c(N)ncnc32)C[C@H](O)[C@@]1(F)COP(=O)(O)OP(=O)(O)OP(=O)(O)O [Example 26, ((1S,3S,5S)-3-(6-Amino-9H-purin-9-yl)-1-fluoro-5-hydroxy-2-methylenecyclopentyl)methyl Tetrahydrogen Triphosphate] | 7.09 | 8.09
C=C1[C@@H](n2ccc(N)nc2=O)C[C@H](O)[C@@]1(C#N)COP(=O)(O)OP(=O)(O)OP(=O)(O)O [Example 33, ((1S,3S,5S)-3-(4-Amino-2-oxopyrimidin-1(2H)-yl)-1-cyano-5-hydroxy-2-methylenecyclopentyl)methyl Tetrahydrogen Triphosphate] | 7.11 | 6.66
C=C1[C@H](COP(=O)(O)OP(=O)(O)OP(=O)(O)O)[C@@H](O)C[C@@H]1n1ccc2c(=O)[nH]c(N)nc21 [Example 23, ((1R,3S,5S)-3-(2-Amino-4-oxo-3,4-dihydro-7H-pyrrolo[2,3-d]pyrimidin-7-yl)-5-hydroxy-2-methylenecyclopentyl)methyl Tetrahydrogen Triphosphate] | 6.42 | 8.06
